Laboratory results taken from US20020111355A1, “Cyclic urea and cyclic amide derivatives” (American Home Products Corporation, priority 1999, published 2002).

Columns and labels:
[1] = tested on: rat uterine decidualization; assay: Rat decidualization assay; settings: average over dose-response curves; decidual response; s.c.
T47D cells = assay: T47D cell proliferation assay (BrdU incorporation); assay type: cell-based; settings: Homo sapiens, decrease in trimegestone induced BrdU incorporation (0.03 nM trimegestone), individual studies
Method: 3. T47D Cell Proliferation Assay
The objective of this assay is the determination of progestational and antiprogestational potency by using a cell proliferation assay in T47D cells. A compound's effect on DNA synthesis in T47D cells is measured.
DMEM:F12 (1:1) (GIBCO, BRL) supplemented with 10% (v/v) fetal bovine serum (not heat-inactivated), 100 U/ml penicillin, […], and 2 mM GlutaMax (GIBCO, BRL).
Minimum Essential Medium (MEM) (#51200-038GIBCO, BRL) phenol red-free supplemented with 0.5% charcoal stripped fetal bovine serum, 100 U/ml penicillin, […] streptomycin, and 2 mM GlutaMax (GIBCO, BRL). […]
At the end of BrdU labeling, the medium is removed and BrdU incorporation is measured using a cell proliferation ELISA kit (#RPN 250, Amersham Life Science) according to manufacturer's instructions. […] Then 25 μl of 1 M sulfuric acid is added to each well to stop color reaction and optical density is read in a plate reader at 450 nm within 5 min.
Square root-transformed data are used for analysis of variance and nonlinear dose response curve fitting for both agonist and antagonist modes. […] EC50 or IC50 values are calculated from the retransformed values. […]

| average EC50 [1] | Compound | also measured |
| --- | --- | --- |
| 0.10 mg/kg. s.c. | C#C[C@]1(O)CC[C@H]2[C@@H]3CCC4=CC(=O)CC[C@@H]4[C@H]3C(=C)C[C@@]21CC [3-Ketodesogestrel] | – |
| – | CC1(C)OC(=O)Nc2ncc(-c3cccc(Cl)c3)cc21 [Example 4, 6-(3-Chloro-phenyl)-4,4-dimethyl-1,4-dihydro-3-oxa-1,8-diaza-naphthalene-2-one] | melting point: 214 to 215 °C |
| 0.10 mg/kg. s.c. | C#C[C@]1(O)CC[C@H]2[C@@H]3CCC4=CC(=O)CC[C@@H]4[C@H]3CC[C@@]21CC [Levonorgestrel] | – |
| – | CC#C[C@]1(O)CC[C@H]2[C@@H]3CCC4=CC(=O)CCC4=C3[C@@H](c3ccc(N(C)C)cc3)C[C@@]21C [RU486] | IC50 (T47D cells): 0.011 nM |
